{"source": "paper PMC3071989", "about": "(Clinical cancer research : an official journal of the …, 2010)", "key": {"[1]": {"test": "Docetaxel plasma pharmacokinetics with and without tariquidar", "assay_type": "in vivo, human", "conditions": "docetaxel 40 mg/m2, tariquidar 150 mg"}, "[2]": {"conditions": "patients who receive weekly docetaxel; cited from earlier work"}, "Pgp [3]": {"target": "T1, Pgp (Homo sapiens, UniProt P08183)", "T1 sequence (P08183 whole entry)": "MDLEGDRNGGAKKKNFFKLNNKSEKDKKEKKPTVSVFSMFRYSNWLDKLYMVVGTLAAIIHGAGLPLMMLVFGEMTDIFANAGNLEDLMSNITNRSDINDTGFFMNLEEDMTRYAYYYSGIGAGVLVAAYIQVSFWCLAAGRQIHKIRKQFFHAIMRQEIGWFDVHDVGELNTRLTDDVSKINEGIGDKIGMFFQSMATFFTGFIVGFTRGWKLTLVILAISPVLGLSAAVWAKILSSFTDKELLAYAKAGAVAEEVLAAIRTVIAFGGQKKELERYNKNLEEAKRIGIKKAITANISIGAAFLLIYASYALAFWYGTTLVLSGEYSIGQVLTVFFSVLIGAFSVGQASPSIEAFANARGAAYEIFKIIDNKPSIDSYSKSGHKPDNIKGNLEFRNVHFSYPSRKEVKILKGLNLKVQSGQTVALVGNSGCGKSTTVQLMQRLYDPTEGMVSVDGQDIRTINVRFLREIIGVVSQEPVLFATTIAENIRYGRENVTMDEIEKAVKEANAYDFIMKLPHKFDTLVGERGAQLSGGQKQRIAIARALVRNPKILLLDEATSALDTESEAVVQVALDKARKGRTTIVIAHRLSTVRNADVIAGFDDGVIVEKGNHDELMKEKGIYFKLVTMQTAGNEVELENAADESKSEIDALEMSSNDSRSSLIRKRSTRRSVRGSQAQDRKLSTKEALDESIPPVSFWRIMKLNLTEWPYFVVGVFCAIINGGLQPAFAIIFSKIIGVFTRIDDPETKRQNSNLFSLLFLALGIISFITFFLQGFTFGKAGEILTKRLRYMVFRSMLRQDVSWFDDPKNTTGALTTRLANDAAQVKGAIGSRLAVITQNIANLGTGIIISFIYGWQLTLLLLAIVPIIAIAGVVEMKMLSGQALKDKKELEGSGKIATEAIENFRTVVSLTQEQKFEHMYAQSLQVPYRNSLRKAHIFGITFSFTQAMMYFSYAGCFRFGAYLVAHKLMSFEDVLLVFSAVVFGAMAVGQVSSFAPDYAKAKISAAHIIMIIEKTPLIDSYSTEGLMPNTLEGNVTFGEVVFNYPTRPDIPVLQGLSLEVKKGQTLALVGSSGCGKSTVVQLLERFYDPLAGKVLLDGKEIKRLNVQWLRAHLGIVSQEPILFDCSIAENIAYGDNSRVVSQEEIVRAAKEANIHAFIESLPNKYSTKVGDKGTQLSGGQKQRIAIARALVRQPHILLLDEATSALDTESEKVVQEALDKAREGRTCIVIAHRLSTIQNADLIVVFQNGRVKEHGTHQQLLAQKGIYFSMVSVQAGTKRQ", "test": "Rhodamine 123 efflux from CD56+ mononuclear cells of patients", "assay_type": "cell-based"}, "Pgp [4]": {"target": "T1, Pgp", "test": "99mTc-sestamibi scanning before and after tariquidar", "assay_type": "in vivo", "conditions": "after tariquidar 150 mg vs baseline"}, "MRP1": {"system": "MRP1", "conditions": "cited from earlier work"}, "ABCG2": {"system": "ABCG2", "conditions": "compared with Pgp; cited from earlier work"}}, "data": [{"smiles": "CC(=O)O[C@@]12CO[C@@H]1C[C@H](O)[C@@]1(C)C(=O)[C@H](O)C3=C(C)[C@@H](OC(=O)[C@H](O)[C@@H](NC(=O)OC(C)(C)C)c4ccccc4)C[C@@](O)([C@@H](OC(=O)c4ccccc4)[C@H]21)C3(C)C", "note": "[docetaxel]", "values": [{"measurement": "docetaxel disposition, pairwise comparison with and without tariquidar", "setting": "[1]; AUC0-24 and Cmax", "result": "no significant difference"}, {"measurement": "geometric mean ratio of docetaxel AUC0-24 (with tariquidar/without tariquidar)", "setting": "[1]; 31 patients, plasma", "result": "1.07 (95% CI: 0.922-1.25)"}, {"measurement": "geometric mean ratio of docetaxel Cmax (with tariquidar/without tariquidar)", "setting": "[1]; 31 patients, plasma", "result": "0.907 (95% CI: 0.697-1.18)"}, {"measurement": "epiphora secondary to canalicular stenosis, incidence", "setting": "[2]", "result": "33-50%"}]}, {"smiles": "COc1cc2c(cc1OC)CN(CCc1ccc(NC(=O)c3cc(OC)c(OC)cc3NC(=O)c3cnc4ccccc4c3)cc1)CC2", "note": "[tariquidar]", "values": [{"measurement": "rhodamine efflux from CD56+ cells compared to Pre levels", "setting": "Pgp [3]; 24 h after start of tariquidar 150 mg IV infusion, 41 patients", "result": "significantly decreased"}, {"measurement": "inhibition of Pgp in circulating mononuclear cells", "setting": "Pgp [3]; tariquidar 150 mg IV", "result": "complete inhibition"}, {"measurement": "change in sestamibi AUC, liver", "setting": "Pgp [4]; P<0.001", "result": "statistically significant change"}, {"measurement": "change in sestamibi AUC, visualized tumor tissue", "setting": "Pgp [4]; P<0.001", "result": "statistically significant change"}, {"measurement": "change in sestamibi AUC0-3, cardiac tissue", "setting": "Pgp [4]; two-tailed Student's t-test", "result": "No statistically significant increase"}, {"measurement": "change in sestamibi AUC0-3, lung tissue", "setting": "Pgp [4]; two-tailed Student's t-test", "result": "No statistically significant increase"}, {"measurement": "inhibition of MRP1", "setting": "MRP1", "result": "does not inhibit"}, {"measurement": "inhibition of ABCG2-mediated resistance in vitro", "setting": "ABCG2", "result": "higher concentrations are required to inhibit ABCG2"}]}, {"smiles": "C/C=C/C[C@@H](C)C(=O)[C@H]1C(=O)N[C@@H](C(C)C)C(=O)N(C)CC(=O)N(C)[C@@H](CC(C)C)C(=O)N[C@@H](C(C)C)C(=O)N(C)[C@@H](CC(C)C)C(=O)N[C@@H](C)C(=O)N[C@H](C)C(=O)N(C)[C@@H](CC(C)C)C(=O)N(C)[C@@H](CC(C)C)C(=O)N(C)[C@@H](C(C)C)C(=O)N1C", "note": "[valspodar]", "values": [{"measurement": "inhibition of Pgp-mediated rhodamine transport", "setting": "Pgp [3]; exogenously added valspodar 3 μg/ml", "result": "fully inhibits"}]}]}
